We go through five compounds from patent US11357786B2, “Synthetic disugar hydrocarbons as natural analogs to control microbial behaviors” (Syracuse University, priority 2014, dated 2022).

Read-outs that look alike come from different tables or passages of the source.

The subject of one experiment is PAO1 biofilm. Nature of the experiment: Crystal violet based static biofilm inhibition assay, DSHs in LB media (Examples 2 and 4). Format: cell-based, Pseudomonas aeruginosa. Particulars: for Anti-biofilm activity (biofilm inhibition): concentration not given; for Inhibition of PAO1 biofilm in presence of pili peptide PAO(128-144)ox: agent 85 μM + pili peptide 85 μM; for Inhibition of PAO1 biofilm in presence of scrambled pili peptide: agent 85 μM + scrambled pili peptide 85 μM. In a few lines:
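PAO1 subculture (OD600 ~0.1) was grown statically in LB at 37° C for 24 h with or without DSHs (screened at 160 μM). Surface-attached biofilm was then stained with 0.1% crystal violet, solubilised in 30% AcOH and read at 600 nm. Values are the mean of 4 wells.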

Another experiment concerns 1-day old PAO1 biofilm. Nature of the experiment: Crystal violet assay for dispersion of 1-day old biofilm, DSHs (Examples 2 and 4). It counts as cell-based, Pseudomonas aeruginosa. How it is done: The effect that DSHs have on the adhesion of PAO1-EGFP on polystyrene surface (microtiter plate) was also examined. PAO1-EGFP is a P. aeruginosa strain that constitutively expresses green fluorescent protein. In the adhesion assays, PAO1-EGFP was grown in microtiter plate for 24-hours in LB-media with (160 μM) or without DSHs. After 24-hours, the fluorescent signal obtained from surface adhered PAO1-EGFP was measured. Percent reduction in fluorescence was calculated by comparing fluorescent signal from PAO1-EGFP grown in LB-media with the signal from wells that had DSHs (FIG. 29A). To study the effect of DSHs on biofilm formation, Pseudomonas aeruginosa (PAO1) was grown in LB-media with (160 μM) or without DSHs at 37° C. under static conditions within wells of microtiter plates. After 24 hours, the surface attached biofilms adhering to the bottom of the wells were stained with crystal-violet dye and the biofilm was quantified by measuring absorbance at 600 nm (OD600). The percent inhibition was calculated by comparing biofilm content of wells with no added agents (control) with the biofilm content from wells that had 160 μM of DSHs (FIG. 29A). Similar to inhibition, the surface attached biofilm after dispersion with DSHs was quantified with crystal-violet staining and absorbance measurement at 600 nm, except that for dispersion, biofilm was first grown for 1 day in just LB-media without any DSHs after which DSHs were added and plates were incubated for additional 24 hours followed by quantification (FIG. 29B).
Crystal violet based assay for quantifying dispersion of 1-day old PAO1 biofilms were Plate for set up similar to inhibition assay with a slight modification. Wells of the micro-titer plate was inoculated with (200 μL) bacterial subculture (PAO1 subculture OD600 ˜0.1). The plates were incubated at 37° C. for 24 hours to allow biofilm formation. After 24 hours, bacterial culture was gently pipetted out and appropriate volume of DSH were added followed by addition of fresh LB medium (200 μL). The microtiter plate was incubated for an additional 24 hours at 37° C., following which, similar to work up of inhibition assay, culture was removed, wells were washed and CV-dye was introduced, followed by washing and destaining with 30% AcOH solution in water and quantification at 600 nm. Here again, only the surface attached biofilm dispersed was reported by comparing wells with DSHs with wells with no agent.
Dose dependence assays for biofilm inhibition and dispersion. […] Both for biofilm inhibition and dispersion, predetermined volumes of DSH stocks were added to the assigned wells to span a concentration range between 0.5 μM-170 μM. Percent biofilm inhibition of dispersion was calculated by comparing to wells with no agent. The percent biofilm inhibition or dispersion was plotted versus concentration of DSHs. The linear values were logarithmically curve fitted using equation […]. The half maximal inhibitory concentration for both biofilm inhibition and dispersion (IC50 and DC50) were thus obtained.

Where [1] appears, read: Example 2, FIG. 20, read-out: Biofilm dispersion DC50.
Where [2] appears, read: Example 4, FIG. 31, read-out: Half-maximal dispersion concentration (DC50).

As for `CCCCCCCCCCCCOCCOCCOCCOCCO` [C12EG4OH, tetra (ethylene glycol) monododecyl ether, reference compound], in the experiment on PAO1 biofilm, the “Anti-biofilm activity (biofilm inhibition)” value is listed as “did not incur any bioactivity”.

The IC50 is the concentration needed to halve the response being measured. A lower IC50 goes with inhibition by little substance. `CC(C)CCCC(C)CCCC(C)CCO[C@@H]1O[C@H](CO)[C@@H](O[C@@H]2O[C@H](CO)[C@@H](O)[C@H](O)[C@H]2O)[C@H](O)[C@H]1O` (stereo partly drawn) [SFβC (12), saturated famesyl-β-cellobioside]: the IC50 in the experiment on PAO1 biofilm (Example 2, FIG. 18) is 4.9 µM; in the experiment on PAO1 biofilm (Example 4, FIG. 30), approximately 9.9 µM. Besides, the “Anti-biofilm activity (biofilm inhibition)” value with PAO1 biofilm is “potent PAO1 biofilm inhibitors”. In addition, the DC50 with 1-day old PAO1 biofilm (setting [1]) is approximately 36.4 µM; with 1-day old PAO1 biofilm (setting [2]), approximately 44 µM.

`CC(C)CCCC(C)CCCC(C)CCO[C@@H]1O[C@H](CO)[C@@H](O[C@H]2O[C@H](CO)[C@@H](O)[C@H](O)[C@H]2O)[C@H](O)[C@H]1O` (stereo partly drawn) [SFβM (14), saturated farnesyl-β-maltoside]: the IC50 in the experiment on PAO1 biofilm (Example 2, FIG. 18) was approximately 97.2 µM; in the experiment with PAO1 biofilm (Example 4, FIG. 30) it was approximately 102 µM. Further, the “Anti-biofilm activity (biofilm inhibition)” value with PAO1 biofilm is listed as “potent PAO1 biofilm inhibitors”. Further, the DC50 in the experiment on 1-day old PAO1 biofilm (setting [2]) is approximately 126 µM.

For the compound `CCCCCCCCCCCCOS(=O)(=O)[O-].[Na+]` [SDS, sodium dodecyl sulfate, reference compound], the “Anti-biofilm activity (biofilm inhibition)” value in the experiment with PAO1 biofilm is recorded as “did not incur any bioactivity”.

For the compound `CC(C)CCCC(C)CCCC(C)CCO[C@H]1O[C@H](CO)[C@@H](O[C@@H]2O[C@H](CO)[C@@H](O)[C@H](O)[C@H]2O)[C@H](O)[C@H]1O` (stereo partly drawn) [SFαC (13), saturated farnesyl-α-cellobioside], the “Inhibition of PAO1 biofilm” value with PAO1 biofilm (85 μM, agent alone) is on record as “about 70%”. Besides, the IC50 with PAO1 biofilm (Example 2, FIG. 18) was approximately 32.3 µM; in the experiment on PAO1 biofilm (Example 4, FIG. 30), approximately 32 µM. In addition, the results for the “Inhibition of PAO1 biofilm in presence of pili peptide PAO(128-144)ox” value in the experiment on PAO1 biofilm and with PAO1 biofilm (listed as 13: SFαC) were 30% and “exhibited no inhibition of PA biofilm”, respectively. In addition, the figures for the “Inhibition of PAO1 biofilm in presence of scrambled pili peptide” value in the experiment on PAO1 biofilm and in the experiment on PAO1 biofilm (listed as 13: SFαC) were 65% and “did not compromise the efficacy of the agent”, respectively. Further, in the experiment with PAO1 biofilm, the “Anti-biofilm activity (biofilm inhibition)” value was “potent PAO1 biofilm inhibitors”. Also, the DC50 in the experiment on 1-day old PAO1 biofilm (setting [1]) is approximately 78.4 µM; in the experiment on 1-day old PAO1 biofilm (setting [2]) it was approximately 89 µM.
